Patent US20040043403A1, “Process for determining the biological activity of epidermal growth factor receptor tyrosine kinase inhibitors” (priority 2000, published 2004)

Columns and labels:
[1] = test system: Epidermal Growth Factor (EGF)-responsive tumors; conditions: disclosed in WO 97/02266; cited from earlier work
[2] = test system: A431 cells; test: Real time RT-PCR gene expression in A431 cells; type: cell-based, human
Description: 20 million tissue culture cells (about 80% confluent) or 200 million WBCs are incubated for 2 or 24 h in culture medium containing 3 μM of an EGFR tyrosine kinase inhibitor or 0.03% DMSO. Total RNA from cell pellet is isolated using the RNeasy kit (Qiagen). mRNA is isolated using the oligotex mRNA purification kit (Qiagen). The quality of the obtained mRNA is tested by real time RT-PCR using beta-Actin primers (PE Applied Biosystems) with an amplicon size of 300 base pairs (bp). The total RNA is used as a reference to calculate the amount of mRNA-enrichment in the oligotex purified samples. 2 million A431 cells at about 80% confluency are treated with an EGFR tyrosine kinase inhibitor (100, 300 or 3000 nM) or 0.03% DMSO and incubated for 4, 8, 16 or 24 h. Total RNA is isolated using the RNeasy kit. The primers and probes are designed from mRNA sequences within the coding region or in the 3′ untranslated region (Table 2). For real time RT-PCR, RNA concentrations between 1 and 50 ng/reaction are used to obtain signals between 15-35 cycles. For each RNA preparation RT-PCR reactions are performed with and without reverse transcriptase to check for genomic DNA contamination. In all RNA samples tested, genomic DNA contamination is less than 1%. To normalize for variability in the initial concentration and quality of the total RNA, Glyceraldehyde-3-phosphate dehydrogenase (GAPDH) is used as an endogenous reference in all quantification experiments. For RT-PCR a one step, two-enzyme system is chosen. The TaqMan PCR Core Reagent Kit (PE #N808-0228) plus the reverse transcriptase MuLV (PE Biosystems # N808-0018) and RNase inhibitor (Roche Diagnostics # 799 025) are mixed as described in the manufacturers protocol. Triplicate measurements are done for target and for reference reactions. […] RT-PCR reactions are done with RNA concentrations of 2.5, 5, 10, 20, 40 and 80 ng per reaction. The absolute value of the slope of (log input amount) vs. ΔCT should be <0.1. The ΔCT value is determined by subtracting the average reference CT values from the average target CT values of the three measurements. Relative quantification is performed in triplicates, reference and target, using the RT-PCR protocol described above.

[3] = molecular target: EGFR tyrosine kinase (Homo sapiens, UniProt P00533); conditions: disclosed in WO 97/02266; cited from earlier work
[4] = A431, 3 μM, 24 h, relative to DMSO-treated NCI-H520 calibrator
[5] = A431 cells, 3 μM, 24 hours, Experiment 1
[6] = A431 cells, 3 μM, 24 hours, Experiment 2
[7] = A431 cells, 3 μM, 24 hours, Experiment 3

Chain of EGFR tyrosine kinase (P00533 669-1210 limits assumed): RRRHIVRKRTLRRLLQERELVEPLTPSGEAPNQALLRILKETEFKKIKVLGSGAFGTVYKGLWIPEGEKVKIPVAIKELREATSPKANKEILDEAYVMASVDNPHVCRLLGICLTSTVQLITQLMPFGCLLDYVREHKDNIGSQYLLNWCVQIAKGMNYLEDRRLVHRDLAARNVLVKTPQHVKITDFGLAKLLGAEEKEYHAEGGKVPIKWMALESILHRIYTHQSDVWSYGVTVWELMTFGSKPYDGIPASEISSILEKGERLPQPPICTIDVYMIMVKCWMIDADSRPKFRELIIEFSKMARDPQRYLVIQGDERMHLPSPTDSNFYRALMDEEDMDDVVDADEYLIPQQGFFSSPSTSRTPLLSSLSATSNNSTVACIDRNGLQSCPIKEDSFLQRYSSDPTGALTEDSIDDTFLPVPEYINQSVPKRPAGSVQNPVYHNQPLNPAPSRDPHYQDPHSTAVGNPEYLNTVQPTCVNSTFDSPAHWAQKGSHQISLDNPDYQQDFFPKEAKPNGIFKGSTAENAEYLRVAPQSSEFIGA

## C[C@@H](Nc1ncnc2[nH]c(-c3ccc(O)cc3)cc12)c1ccccc1 [COMPOUND A, (R)-6-(4-hydroxy-phenyl)-4-[(1-phenyl-ethyl)-amino]-7H-pyrrolo[2,3-d]pyrimidine]
[1]
  Anti-proliferative activity against EGF-responsive tumors: exhibits anti-proliferative activity
[2]; [4]
  Relative Clusterin expression: 247.28 n-fold
  Relative TRAIL expression: 99.50 n-fold
  Relative VAC-beta expression: 57.20 n-fold
[2]; A431 cells, 100 nM, 300 nM and 3 μM, 4 to 24 h, real time RT-PCR
  Induction of clusterin gene expression, dose and time dependency (FIGS. 1A and 1B): shows dose and time dependency
[2]; [5]
  Gene induction, Real time RT-PCR Experiment 1: Acute phase serum amyloid A protein: 6.6
  Gene induction, Real time RT-PCR Experiment 1: Cathepsin H: 5.2
  Gene induction, Real time RT-PCR Experiment 1: Caveolin: 2.8 ± 0.2
  Gene induction, Real time RT-PCR Experiment 1: Complement component 3 (C3): 5.6
  Gene induction, Real time RT-PCR Experiment 1: Complement cytolysis inibitor (Clusterin): 11.2 ± 2.0
  Gene induction, Real time RT-PCR Experiment 1: DNA binding protein inhibitor ID-3: 4.4
  Gene induction, Real time RT-PCR Experiment 1: Extracellular protein S1-5: 3.2 ± 1.7
  Gene induction, Real time RT-PCR Experiment 1: TGF-beta induced gene: 5.2
  Gene induction, Real time RT-PCR Experiment 1: TRAIL: 7.8 ± 1.6
  Gene induction, Real time RT-PCR Experiment 1: VAC-beta (annexin VIII): 2.8 ± 1.5
[2]; [6]
  Gene induction, Real time RT-PCR Experiment 2: Acute phase serum amyloid A protein: 2.5 ± 1.1
  Gene induction, Real time RT-PCR Experiment 2: Cathepsin H: 2.6 ± 0.9
  Gene induction, Real time RT-PCR Experiment 2: Caveolin: 1.5 ± 0.4
  Gene induction, Real time RT-PCR Experiment 2: Complement component 3 (C3): 2.5 ± 0.4
  Gene induction, Real time RT-PCR Experiment 2: Complement cytolysis inibitor (Clusterin): 5.2 ± 1.4
  Gene induction, Real time RT-PCR Experiment 2: DNA binding protein inhibitor ID-3: 2.2 ± 0.1
  Gene induction, Real time RT-PCR Experiment 2: Extracellular protein S1-5: 1.7 ± 0.2
  Gene induction, Real time RT-PCR Experiment 2: TRAIL: 4.1 ± 1.4
  Gene induction, Real time RT-PCR Experiment 2: VAC-beta (annexin VIII): 2.4 ± 0.9
[2]; [7]
  Gene induction, Real time RT-PCR Experiment 3: Acute phase serum amyloid A protein: 3.3
  Gene induction, Real time RT-PCR Experiment 3: Cathepsin H: 2.1
  Gene induction, Real time RT-PCR Experiment 3: Caveolin: 2.6
  Gene induction, Real time RT-PCR Experiment 3: Complement component 3 (C3): 2.0
  Gene induction, Real time RT-PCR Experiment 3: Complement cytolysis inibitor (Clusterin): 6.2
  Gene induction, Real time RT-PCR Experiment 3: DNA binding protein inhibitor ID-3: 2.4
  Gene induction, Real time RT-PCR Experiment 3: Extracellular protein S1-5: 1.2 ± 0.5
  Gene induction, Real time RT-PCR Experiment 3: TRAIL: 5.7 ± 0.03
  Gene induction, Real time RT-PCR Experiment 3: VAC-beta (annexin VIII): 2.5 ± 0.8
[3]
  Inhibition of the EGFR tyrosine kinase: potent and selective inhibitor
